These results are taken from patent US11311593B2, “Root extracts from plants of the Morus genus and uses of same” (PLANT ADVANCED TECHNOLOGIES PAT, priority 2017, dated 2022).

Structures are written as SMILES. “Also recorded” adds a separate entry of the source.

The test system of assay [1] is fungal tyrosinase. In words: Anti-tyrosinase inhibiting activity, L-tyrosine as substrate, dopachrome at 475 nm. The assay is classed as biochemical. As to the method: Morus alba plants were cultivated aeroponically for 8 weeks with a 15/10/30 (N/P/K) culture medium and with an electroconductivity in the range 1.0 and 1.2 mS/cm. The roots were chopped, dried, crushed and macerated in pure ethanol in a ratio of 1 mL of ethanol for 20 mg dry matter in accordance with the protocol described in Example 1. The sample was centrifuged at 21000 g for 10 minutes in order to separate the solid material. The anti-tyrosinase inhibiting activity of the supernatant was measured using L-tyrosine as the substrate. Tyrosinase catalyzes the conversion of L-tyrosine to dopaquinone, which is spontaneously converted into dopachrome. This latter absorbs strongly in the visible range of the electromagnetic spectrum (at 475 nm). The activity of the tyrosinase was measured by following the enzymatic conversion of the colorless L-tyrosine into orange dopachrome with the aid of a microplate reader.
The anti-tyrosinase activity of the supernatant was measured by mixing the following components: 150 μL of the solution of L-tyrosine (1.5 mM) in 50 mM sodium phosphate buffer, pH 6.8; 40 μL of supernatant diluted 2- to 800-fold in ethanol was tested as the inhibitor solution. The enzymatic conversion was initialized by adding a volume of 10 μL of fungal tyrosinase (0.2 mg/mL in a 50 mM sodium phosphate buffer, pH 6.8). The “control” experiment was carried out in the same manner, replacing the supernatant with pure ethanol.
Two root extracts of Morus alba were prepared in accordance with the protocol described in Example 1. The measurement of the anti-tyrosinase inhibiting activity was carried out in accordance with the protocol described in Example 2.1 with 40 μL of each of the two extracts diluted 100-fold or 200-fold in pure ethanol.
The measurement of the anti-tyrosinase inhibiting activity was carried out in accordance with the protocol described in Example 2.1.

The test system of assay [2] is fungal tyrosinase. Nature of the assay: Target Binding affinity test for tyrosinase (UPLC-MS of bound ligands). As to conditions: for Relative affinity (RA) for tyrosinase: ligands in non-stimulated M. alba root extract, moracenin B = reference ligand. From the text:
It is based on the principle of bringing the ligands and the target into contact in the liquid phase so that the ligands that have the greatest affinity with the target bind to it, elimination of the ligands that are not fixed, separation of the complexes in order to recover the ligands which have been fixed, then quantification of the latter. In a first step of the method, the extract and the target are mixed. The compounds of the extract compete for access to the binding sites of the target. The strongest compounds displace the weakest and are retained more effectively by the target. […] A reference sample was also prepared by diluting the sample to be analyzed 10-fold in a solution of water and a quarter of the volume of acetonitrile. […] Pre-conditioning step-Wells with a filtering membrane were pre-conditioned with a volume of 500 μL of an 85% solution of ammonium acetate and 15% of ethanol which was passed through the membrane by centrifuging at 14000 g for 60 seconds. 2. […] 3. Washing step-The mixture of the enzyme and the sample to be analyzed was deposited in a well that had been pre-conditioned in the pre-conditioning step, then centrifuged at 14000 g until most of the solvent had been eliminated. […] This procedure was repeated three times and eliminated all of the compounds that were not bound to the enzyme. 4. Separation step-The enzyme-ligand complexes retained in the filter were re-suspended in a volume of 10 μL of ultra-pure water, then mixed with a volume of 40 μL of acetonitrile in order to denature and precipitate the enzyme and, at the same time, to liberate the ligands. The mixture was centrifuged at 21000 g for 10 min in order to separate the precipitate from the supernatant. 5. Analysis step-Said supernatant was analyzed by liquid phase chromatography coupled to a mass spectrometer, also known by the acronym UPLC-MS. The reference sample was also analyzed in the same manner, using the same analytical conditions. The UPLC-MS analysis was carried out in accordance with the protocol described in Example 1. The chromatograms obtained are presented in FIGS. 3A and 3B and represent a signal intensity as a function of retention time in a column. […] Each peak is associated with one of the ligands present in the analyzed extract. The quantity associated with each ligand corresponds to the area of the peak. […] For each ligand, an affinity ratio, RACEi, was calculated as follows: [formula] where: NF is a normalization factor; […] the intensity of the analytical signal for the ligand CEi in the reference sample; ISeq,REF is the intensity of the analytical signal for the reference ligand REF (here, moracenin B) in the reference sample; […] the intensity of the analytical signal for the ligand CEi in the treated solution (the sample to be analyzed after steps 2 to 4 for binding and separation of the ligands) for the detached ligands; ISTB,REF is the intensity of the analytical signal for the reference ligand REF (here, moracenin B) in the treated solution (the sample to be analyzed after steps 2 to 4 for binding and separation of the ligands) for the detached ligands; RA, CEi is the relative affinity ratio (RA), representing an affinity of the ligand CEi for the target. The value of the ratio increases with affinity.

Assay [3] deals with hyaluronidase. In words: Target Binding affinity test for hyaluronidase. As to conditions: ligands in non-stimulated M. alba root extract; moracenin B = reference ligand. As to the method: A root extract of Morus Alba was prepared in accordance with the protocol described in Example 2.1. The Target Binding® method used was that of Example 2.3 which is described in patent application FR 1 670 545. The experimental protocol was as follows: The target, a 5 mg/mL solution of hyaluronidase, was prepared by dissolving powdered lyophilized enzyme in 50 mM sodium phosphate, with a pH of 7.0. The extract corresponded to the supernatant obtained in accordance with Example 2.1. It could optionally be centrifuged once again before use, at 21000 g for 15 min, in order to eliminate the solid particles before use. A reference sample was also prepared by diluting the sample 10-fold in a solution of water and a quarter of the volume of acetonitrile.
1. Preconditioning step—Wells with a filtering membrane were preconditioned with a volume of 500 μL of a solution of 50 mM sodium phosphate, at a pH of 7.0 which was passed through the membrane by centrifuging at 14000 g for 60 seconds.
2. Binding step—The hyaluronidase preparation (5 mg/mL) was mixed with 7.5 μL of the root extract for 5 min in a plastic Eppendorf tube.
3. Washing step—the mixture of the enzyme and the root extract was deposited in a well that had been preconditioned in the preconditioning step, then centrifuged at 14000 g until most of the solvent had been eliminated. The enzyme-ligand complexes remained on the surface of the membrane of the filter then were re-suspended in a volume of 100 μL of the same solution of 50 mM sodium phosphate at a pH of 7.0, and centrifuged at 14000 g until the solvent had been eliminated. This procedure was repeated three times and eliminated all of the compounds that were not bound to the enzyme. 4. Separation step—The enzyme-ligand complexes retained in the filter were re-suspended in a volume of 10 μL of ultra-pure water then mixed with a volume of 40 μL of acetonitrile in order to denature and precipitate the enzyme and at the same time to liberate the ligands. The mixture was centrifuged at 21000 g for 10 min in order to separate the precipitate from the supernatant. 5. Analysis step—Said supernatant was analyzed by liquid phase chromatography coupled to a mass spectrometer, also known by the acronym UPLC-MS. The reference sample was also analyzed in the same manner, using the same analytical conditions.
The UPLC-MS analysis was carried out in accordance with the protocol described in Example 1.

For the compound `CC(C)=CCc1c(O)ccc(C(=O)C2C(c3ccc(O)cc3O)CC3(C)CC2c2c(O)cc(-c4cc5ccc(O)cc5o4)cc2O3)c1O` (stereo not drawn) [Wittiorumin F, wittiorumin F], the “rank of tyrosinase inhibiting activity among the 4 purified compounds (in words)” value in assay [1] (2.5, 5 and 20 μM) is recorded as “best inhibiting activity”. The “% inhibition of tyrosinase” value in assay [1] (purified compound, 2.5 μM) is 35.7%; in assay [1] (purified compound, 5 μM), 52.9%; in assay [1] (purified compound, 20 μM) it was 75.1%. This compound had an inhibition of tyrosinase in assay [1] (purified compound, 3.2 mg/L) of 52.9%. Besides, the “Relative affinity (RA) for tyrosinase” value in assay [2] is listed as 15.5. Further, the “affinity for tyrosinase compared with the other compounds of the extract (in words)” value in assay [2] (peak areas of FIG. 3B / relative affinities) is listed as “greater affinity; also recorded: higher affinity”. Further, in assay [3], the “Relative affinity (RA) for hyaluronidase” value is 2.1.

In the case of `CC(C)=CCc1c(O)ccc(C(=O)[C@@H]2CC(C)=C[C@H](c3c(O)cc(O)c4c(=O)c(CC=C(C)C)c(-c5ccc(O)cc5O)oc34)[C@H]2c2ccc(O)cc2O)c1O` [Moracenin A, moracenin A], the “% inhibition of tyrosinase” value amounted to 18.9% in assay [1] (purified compound, 2.5 μM); 27.7% in assay [1] (purified compound, 5 μM); 59.0% in assay [1] (purified compound, 20 μM). Besides, in assay [2], the “Relative affinity (RA) for tyrosinase” value was 5.1. Besides, the “Relative affinity (RA) for hyaluronidase” value in assay [3] was 1.9.

With `CC(C)=CCc1c(-c2ccc(O)cc2O)oc2c([C@H]3C=C(C)C[C@H](C(=O)c4ccc(O)cc4O)[C@@H]3c3ccc(O)cc3O)c(O)cc(O)c2c1=O` [Moracenin B, moracenin B], the “% inhibition of tyrosinase” value is reported as 22.6% in assay [1] (purified compound, 2.5 μM); 33.5% in assay [1] (purified compound, 5 μM); 69.7% in assay [1] (purified compound, 20 μM). Moreover, the “Relative affinity (RA) for tyrosinase” value in assay [2] worked out at 1.0. Besides, the “Relative affinity (RA) for hyaluronidase” value in assay [3] was 1.0.
